The text below walks through data of patent US11591341B2 (ALIGOS THERAPEUTICS, INC., priority 2019, dated 2023).

This test concerns HBV. Description: HBV-DNA Antiviral Assay Using HepG2.117 Cells (intracellular HBV DNA by qPCR). Type of test: cell-based, hepatitis B virus (genotype D). The settings on record: Hepatitis B virus, HepG2.117. In short, it runs like this: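 Endpoint: qPCR copy number of intracellular HBV DNA after 3-day compound exposure, with inhibition set relative to the 2% DMSO control. The cells were doxycycline-free HepG2.117 carrying a Tet-off genotype D genome, dosed at nine 4-fold dilutions. A duplicate plate gave ATP-based viability (CC50).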
The term EC50 denotes the concentration that produces a half-maximal response. Low values mean an effect from little substance, high ones a need for much substance. Consider `CNC(=O)c1ccc(-n2c(C(=O)NCc3ccccc3)c3n(c2=O)CCN(C(=O)c2ccc(Br)c(Cl)c2)C3)cc1` [Example 36, N-benzyl-7-(4-bromo-3-chloro-benzoyl)-2-[4-(methylcarbamoyl)phenyl]-3-oxo-6,8-dihydro-5H-imidazo[1,5-a]pyrazine-1-carboxamide], for which the EC50 is > 5 µM. Molecule `COc1ccc(CNC(=O)c2c3n(c(=O)n2-c2ccccc2)CCN(C(=O)c2ccc(Br)c(Cl)c2)C3)c(C)c1` [Example 39, 7-(4-bromo-3-chloro-benzoyl)-N-[(4-methoxy-2-methyl-phenyl)methyl]-3-oxo-2-phenyl-6,8-dihydro-5H-imidazo[1,5-a]pyrazine-1-carboxamide] gave an EC50 of 0.1 to 0.5 µM. For `COc1ccc(CNC(=O)c2c3n(c(=O)n2-c2ccccc2)CCN(C(=O)c2ccc(Br)c(Cl)c2)C3)c(F)c1` [Example 40, 7-(4-bromo-3-chloro-benzoyl)-N-[(2-fluoro-4-methoxy-phenyl)methyl]-3-oxo-2-phenyl-6,8-dihydro-5H-imidazo[1,5-a]pyrazine-1-carboxamide] the value was 0.1 to 0.5 µM. `COc1cccc(-n2c(C(=O)NCc3ccccc3)c3n(c2=O)CCN(C(=O)c2ccc(Br)c(Cl)c2)C3)c1` [Example 41, N-benzyl-7-(4-bromo-3-chloro-benzoyl)-2-(3-methoxyphenyl)-3-oxo-6,8-dihydro-5H-imidazo[1,5-a]pyrazine-1-carboxamide] came in with an EC50 of 0.5 to 5 µM. As to `N#Cc1cccc(-n2c(C(=O)NCc3ccccc3)c3n(c2=O)CCN(C(=O)c2ccc(Br)c(Cl)c2)C3)c1` [Example 44, N-benzyl-7-(4-bromo-3-chloro-benzoyl)-2-(3-cyanophenyl)-3-oxo-6,8-dihydro-5H-imidazo[1,5-a]pyrazine-1-carboxamide], the EC50 fell in the range of 0.5 to 5 µM. Molecule `CS(=O)(=O)c1ccc(-n2c(C(=O)NCc3ccccc3)c3n(c2=O)CCN(C(=O)c2ccc(Br)c(Cl)c2)C3)cc1` [Example 45, N-benzyl-7-(4-bromo-3-chloro-benzoyl)-2-(4-methylsulfonylphenyl)-3-oxo-6,8-dihydro-5H-imidazo[1,5-a]pyrazine-1-carboxamide] yielded an EC50 of 0.5 to 5 µM.

On to `CS(=O)(=O)c1cccc(-n2c(C(=O)NCc3ccccc3)c3n(c2=O)CCN(C(=O)c2ccc(Br)c(Cl)c2)C3)c1` [Example 46, N-benzyl-7-(4-bromo-3-chloro-benzoyl)-2-(3-methylsulfonylphenyl)-3-oxo-6,8-dihydro-5H-imidazo[1,5-a]pyrazine-1-carboxamide], for which the EC50 is > 5 µM. As to `NS(=O)(=O)c1cccc(-n2c(C(=O)NCc3ccccc3)c3n(c2=O)CCN(C(=O)c2ccc(Br)c(Cl)c2)C3)c1` [Example 47, N-benzyl-7-(4-bromo-3-chloro-benzoyl)-3-oxo-2-(3-sulfamoylphenyl)-6,8-dihydro-5H-imidazo[1,5-a]pyrazine-1-carboxamide], the EC50 was > 5 µM. As for `CNC(=O)c1cccc(-n2c(C(=O)NCc3ccccc3)c3n(c2=O)CCN(C(=O)c2ccc(Br)c(Cl)c2)C3)c1` [Example 48, N-benzyl-7-(4-bromo-3-chloro-benzoyl)-2-[3-(methylcarbamoyl)phenyl]-3-oxo-6,8-dihydro-5H-imidazo[1,5-a]pyrazine-1-carboxamide], the EC50 lay in the range of 0.5 to 5 µM.

On to `O=C(NCc1ccccc1)c1c2n(c(=O)n1-c1cccnc1)CCN(C(=O)c1ccc(Cl)c(Cl)c1)C2` [Example 49, N-benzyl-7-(3,4-dichlorobenzoyl)-3-oxo-2-(3-pyridyl)-6,8-dihydro-5H-imidazo[1,5-a]pyrazine-1-carboxamide], for which the EC50 is > 5 µM.

Consider `COc1ccc(-n2c(C(=O)NCc3ccccc3)c3n(c2=O)CCN(C(=O)c2ccc(Cl)c(Cl)c2)C3)cc1Cl` [Example 50, N-benzyl-2-(3-chloro-4-methoxy-phenyl)-7-(3,4-dichlorobenzoyl)-3-oxo-6,8-dihydro-5H-imidazo[1,5-a]pyrazine-1-carboxamide], for which the EC50 was > 5 µM. `CCOc1ccc(-n2c(C(=O)NCc3ccccc3)c3n(c2=O)CCN(C(=O)c2ccc(Cl)c(Cl)c2)C3)cc1` [Example 51, N-benzyl-7-(3,4-dichlorobenzoyl)-2-(4-ethoxyphenyl)-3-oxo-6,8-dihydro-5H-imidazo[1,5-a]pyrazine-1-carboxamide] yielded an EC50 of 0.5 to 5 µM. `CC(C)Oc1ccc(-n2c(C(=O)NCc3ccccc3)c3n(c2=O)CCN(C(=O)c2ccc(Cl)c(Cl)c2)C3)cc1` [Example 52] showed an EC50 of 0.5 to 5 µM. For `COc1ccc(-n2c(C(=O)NCc3ccnnc3)c3n(c2=O)CCN(C(=O)c2ccc(Cl)c(Cl)c2)C3)cc1` [Example 53, 7-(3,4-dichlorobenzoyl)-2-(4-methoxyphenyl)-3-oxo-N-(pyridazin-4-ylmethyl)-6,8-dihydro-5H-imidazo[1,5-a]pyrazine-1-carboxamide] the value was > 5 µM; for `COc1ccc(-n2c(C(=O)NCc3ccccc3)c3n(c2=O)CCN(C(=O)c2ccc(Cl)c(Cl)c2)C3)cc1` [Example 54, N-benzyl-7-(3,4-dichlorobenzoyl)-2-(4-methoxyphenyl)-3-oxo-6,8-dihydro-5H-imidazo[1,5-a]pyrazine-1-carboxamide], 0.5 to 5 µM; for `COc1ccc(-n2c(C(=O)NCc3ccccc3)c3n(c2=O)CCN(C(=O)c2cc4c(C)cccc4[nH]2)C3)cc1` [Example 55, N-benzyl-2-(4-methoxyphenyl)-7-(4-methyl-1H-indole-2-carbonyl)-3-oxo-6,8-dihydro-5H-imidazo[1,5-a]pyrazine-1-carboxamide], 0.5 to 5 µM. `COc1ccc(-n2c(C(=O)NCc3ccccc3)c3n(c2=O)CCN(C(=O)c2cc4c(Cl)cccc4[nH]2)C3)cc1` [Example 56, N-benzyl-7-(4-chloro-1H-indole-2-carbonyl)-2-(4-methoxyphenyl)-3-oxo-6,8-dihydro-H-imidazo[1,5-a]pyrazine-1-carboxamide]: the half-maximal effective concentration (EC50) lay within 0.1 to 0.5 µM.

`COc1ccc(-n2c(C(=O)NCc3ccncc3)c3n(c2=O)CCN(C(=O)c2ccc(Cl)c(Cl)c2)C3)cc1` [Example 57, 7-(3,4-dichlorobenzoyl)-2-(4-methoxyphenyl)-3-oxo-N-(4-pyridylmethyl)-6,8-dihydro-5H-imidazo[1,5-a]pyrazine-1-carboxamide]: the EC50 was > 5 µM. Regarding `COc1ccc(-n2c(C(=O)NCC(C)C)c3n(c2=O)CCN(C(=O)c2ccc(Cl)c(Cl)c2)C3)cc1` [Example 58, 7-(3,4-dichlorobenzoyl)-N-isobutyl-2-(4-methoxyphenyl)-3-oxo-6,8-dihydro-5H-imidazo[1,5-a]pyrazine-1-carboxamide], the EC50 was > 5 µM. Molecule `COc1ccc(-n2c(C(=O)NCc3ccccc3)c3n(c2=O)CCN(C(=O)c2ccc(Cl)c(Cl)c2)C3)c(Cl)c1` [Example 59, N-benzyl-2-(2-chloro-4-methoxy-phenyl)-7-(3,4-dichlorobenzoyl)-3-oxo-6,8-dihydro-5H-imidazo[1,5-a]pyrazine-1-carboxamide] had an EC50 of 0.5 to 5 µM. Regarding `COc1ccc(-n2c(C(=O)NCc3ccc(F)cc3)c3n(c2=O)CCN(C(=O)c2ccc(Br)c(Cl)c2)C3)cc1` [Example 60, 7-(4-bromo-3-chloro-benzoyl)-N-[(4-fluorophenyl)methyl]-2-(4-methoxyphenyl)-3-oxo-6,8-dihydro-5H-imidazo[1,5-a]pyrazine-1-carboxamide], the EC50 was 0.1 to 0.5 µM. The molecule `COc1ccc(-n2c(C(=O)NCc3ccc(F)cc3)c3n(c2=O)CCN(C(=O)c2ccc(Cl)c(Cl)c2)C3)cc1` [Example 61, 7-(3,4-dichlorobenzoyl)-N-[(4-fluorophenyl)methyl]-2-(4-methoxyphenyl)-3-oxo-6,8-dihydro-5H-imidazo[1,5-a]pyrazine-1-carboxamide] registered an EC50 of 0.5 to 5 µM. On to `COc1ccc(-n2c(C(=O)NCc3cccc(C#N)c3)c3n(c2=O)CCN(C(=O)c2ccc(Br)c(Cl)c2)C3)cc1` [Example 62, 7-(4-bromo-3-chloro-benzoyl)-N-[(3-cyanophenyl)methyl]-2-(4-methoxyphenyl)-3-oxo-6,8-dihydro-5H-imidazo[1,5-a]pyrazine-1-carboxamide], for which the EC50 was in the range of 0.5 to 5 µM.

The molecule `COc1ccc(-n2c(C(=O)NCc3cccc(C#N)c3)c3n(c2=O)CCN(C(=O)c2ccc(Cl)c(Cl)c2)C3)cc1` [Example 63, N-[(3-cyanophenyl)methyl]-7-(3,4-dichlorobenzoyl)-2-(4-methoxyphenyl)-3-oxo-6,8-dihydro-5H-imidazo[1,5-a]pyrazine-1-carboxamide] displayed an EC50 of 0.5 to 5 µM. As for `COc1ccc(-n2c(C(=O)NCc3cccnc3)c3n(c2=O)CCN(C(=O)c2ccc(Cl)c(Cl)c2)C3)cc1` [Example 64, 7-(3,4-dichlorobenzoyl)-2-(4-methoxyphenyl)-3-oxo-N-(3-pyridylmethyl)-6,8-dihydro-5H-imidazo[1,5-a]pyrazine-1-carboxamide], the figure is > 5 µM; as for `COc1ccc(-n2c(C(=O)NCc3ccc4occc4c3)c3n(c2=O)CCN(C(=O)c2ccc(Cl)c(Cl)c2)C3)cc1` [Example 66, N-(benzofuran-5-ylmethyl)-7-(3,4-dichlorobenzoyl)-2-(4-methoxyphenyl)-3-oxo-6,8-dihydro-5H-imidazo[1,5-a]pyrazine-1-carboxamide], 0.5 to 5 µM; as for `COc1ccc(-n2c(C(=O)NCc3ccc4oc(C)nc4c3)c3n(c2=O)CCN(C(=O)c2ccc(Cl)c(Cl)c2)C3)cc1` [Example 67, 7-(3,4-dichlorobenozyl)-2-(4-methoxyphenyl)-N-[(2-methyl-1,3-benzoxazol-5-yl)methyl]-3-oxo-6,8-dihydro-5H-imidazo[1,5-a]pyrazine-1-carboxamide], 0.5 to 5 µM.

With `NS(=O)(=O)c1ccc(-n2c(C(=O)NCc3ccccc3)c3n(c2=O)CCN(C(=O)c2ccc(Br)c(Cl)c2)C3)cc1` [Example 71, N-benzyl-7-(4-bromo-3-chloro-benzoyl)-3-oxo-2-(4-sulfamoylphenyl)-6,8-dihydro-5H-imidazo[1,5-a]pyrazine-1-carboxamide], the EC50 is > 5 µM. For `COc1ccc(-n2c(-c3ccccc3)c3n(c2=O)CCN(C(=O)c2ccc(Cl)c(Cl)c2)C3)cc1` [Example 74, 7-(3,4-dichlorobenzoyl)-2-(4-methoxyphenyl)-1-phenyl-6,8-dihydro-5H-imidazo[1,5-a]pyrazin-3-one], the EC50 is > 5 µM.
